Reference: patent publication US8044198B2, “Sirtuin modulating compounds” (Sirtris Pharmaceuticals, Inc., priority 2005, dated 2011)
pEC50: −log10 of the molar value.

Target: T1, SIRT1 (Homo sapiens, UniProt Q96EB6)
T1 sequence (Q96EB6 1-747): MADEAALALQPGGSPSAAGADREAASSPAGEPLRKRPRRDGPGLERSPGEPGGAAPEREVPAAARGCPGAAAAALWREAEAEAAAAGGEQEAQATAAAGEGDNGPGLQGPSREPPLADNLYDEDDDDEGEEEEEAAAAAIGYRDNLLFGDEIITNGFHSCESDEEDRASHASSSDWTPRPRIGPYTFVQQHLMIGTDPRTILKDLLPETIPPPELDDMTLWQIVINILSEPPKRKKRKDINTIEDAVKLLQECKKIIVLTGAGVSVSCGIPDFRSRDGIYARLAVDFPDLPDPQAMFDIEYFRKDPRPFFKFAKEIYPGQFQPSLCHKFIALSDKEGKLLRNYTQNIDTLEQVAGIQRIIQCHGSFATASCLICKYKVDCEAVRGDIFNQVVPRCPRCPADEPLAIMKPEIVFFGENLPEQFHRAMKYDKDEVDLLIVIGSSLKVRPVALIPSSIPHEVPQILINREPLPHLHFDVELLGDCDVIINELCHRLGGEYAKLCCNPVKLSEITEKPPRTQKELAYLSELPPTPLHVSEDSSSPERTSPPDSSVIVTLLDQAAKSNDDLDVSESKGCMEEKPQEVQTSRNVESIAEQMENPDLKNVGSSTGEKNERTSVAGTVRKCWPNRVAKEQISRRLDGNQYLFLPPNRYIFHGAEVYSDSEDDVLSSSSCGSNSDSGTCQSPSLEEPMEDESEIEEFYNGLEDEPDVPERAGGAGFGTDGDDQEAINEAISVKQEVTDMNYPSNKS
Assay: SIRT1 mass spectrometry (MS) based deacetylation assay; as to FOLD ACT. MS: test concentration or dose not given here
Format: biochemical
Settings: for pEC50: SIRT1 activation, mass spectrometry assay, read-out: ED50 MS ASSAY

[1] = fold activation of SIRT1 as determined by MS
[2] = fold activation of SIRT1, mass spectrometry assay

## COc1ccc(C(=O)Nc2ccccc2-c2cn3ccsc3n2)cc1OC [Compound 203]
  pEC50: > 5.30
[1]
  FOLD ACT. MS: B (B (Fold Activation <250%))

## COc1cc(C(=O)Nc2ccccc2-c2cn3ccsc3n2)cc(OC)c1OC [Compound 204]
  pEC50: > 5.30
[1]
  FOLD ACT. MS: A (A (Fold activation >250%))

## COc1ccc(C(=O)Nc2ccccc2-c2cn3c(CN(C)C)csc3n2)cc1OC [Compound 205]
  pEC50: 4.30 to 5.30
[1]
  FOLD ACT. MS: A (A (Fold activation >250%))

## COc1cc(C(=O)Nc2ccccc2-c2cn3c(CN(C)C)csc3n2)cc(OC)c1OC [Compound 206]
  pEC50: 4.30 to 5.30
[1]
  FOLD ACT. MS: A (A (Fold activation >250%))

## COc1ccc(C(=O)Nc2ccccc2-c2cn3c(CN4CCNCC4)csc3n2)cc1OC [Compound 207]
  pEC50: 4.30 to 5.30
[1]
  FOLD ACT. MS: A (A (Fold activation >250%))

## COc1cc(C(=O)Nc2ccccc2-c2cn3c(CN4CCNCC4)csc3n2)cc(OC)c1OC [Compound 208]
  pEC50: 4.30 to 5.30
[1]
  FOLD ACT. MS: A (A (Fold activation >250%))

## COc1ccc(C(=O)Nc2ccccc2-c2cn3c(CN4CCOCC4)csc3n2)cc1OC [Compound 209]
  pEC50: 4.30 to 5.30
[1]
  FOLD ACT. MS: A (A (Fold activation >250%))

## COc1cc(C(=O)Nc2ccccc2-c2cn3c(CN4CCOCC4)csc3n2)cc(OC)c1OC [Compound 210]
  pEC50: 4.30 to 5.30
[1]
  FOLD ACT. MS: B (B (Fold Activation <250%))

## COc1ccc(C(=O)Nc2cccc(-c3nc4ccccc4[nH]3)c2)c(OC)c1 [Compound 211]
  pEC50: > 5.30
[1]
  FOLD ACT. MS: B (B (Fold Activation <250%))

## COc1cccc(C(=O)Nc2cccc(-c3nc4cccnc4s3)c2)c1 [Compound 212]
  pEC50: 4.30 to 5.30
[1]
  FOLD ACT. MS: B (B (Fold Activation <250%))

## COc1ccc(C(=O)Nc2cccc(-c3nc4cccnc4s3)c2)c(OC)c1 [Compound 213]
  pEC50: > 5.30
[1]
  FOLD ACT. MS: B (B (Fold Activation <250%))

## COc1cccc(C(=O)Nc2cccc(-c3nc4cccnc4s3)c2)c1OC [Compound 214]
  pEC50: 4.30 to 5.30
[1]
  FOLD ACT. MS: B (B (Fold Activation <250%))

## COc1cc(OC)cc(C(=O)Nc2cccc(-c3nc4cccnc4s3)c2)c1 [Compound 215]
  pEC50: > 5.30
[1]
  FOLD ACT. MS: B (B (Fold Activation <250%))

## COc1ccc(C(=O)Nc2cccc(-c3nc4cccnc4s3)c2)cc1 [Compound 216]
  pEC50: > 5.30
[1]
  FOLD ACT. MS: B (B (Fold Activation <250%))

## COc1cc(C(=O)Nc2cccc(-c3nc4cccnc4s3)c2)cc(OC)c1OC [Compound 217]
  pEC50: > 5.30
[1]
  FOLD ACT. MS: A (A (Fold activation >250%))

## COc1cc(C(=O)Nc2cccc(-c3cn4cccnc4n3)c2)cc(OC)c1OC [Compound 218]
  pEC50: > 5.30
[2]
  FOLD ACT. MS: A (A (Fold activation >250%))

## COc1cc(C(=O)Nc2cccc(-c3nc4ncccn4c3C)c2)cc(OC)c1OC [Compound 219]
  pEC50: 4.30 to 5.30
[2]
  FOLD ACT. MS: A (A (Fold activation >250%))

## O=C(Nc1cccc(-c2nc3ccncc3s2)c1)c1ccco1 [Compound 221]
  pEC50: 4.30 to 5.30
[2]
  FOLD ACT. MS: B (B (Fold Activation <250%))

## O=C(Nc1cccc(-c2nc3ccncc3s2)c1)c1cccnc1Cl [Compound 222]
  pEC50: 4.30 to 5.30
[2]
  FOLD ACT. MS: B (B (Fold Activation <250%))

## O=C(Nc1cccc(-c2nc3ccncc3s2)c1)c1cccs1 [Compound 223]
  pEC50: > 5.30
[2]
  FOLD ACT. MS: B (B (Fold Activation <250%))

## Cc1cc(C(=O)Nc2cccc(-c3nc4ccncc4s3)c2)n(C(C)(C)C)n1 [Compound 228]
  pEC50: 4.30 to 5.30
[2]
  FOLD ACT. MS: A (A (Fold activation >250%))

## O=C(Nc1cccc(-c2nc3ccncc3s2)c1)c1ccc(-c2ccccc2)o1 [Compound 241]
  pEC50: > 5.30
[2]
  FOLD ACT. MS: B (B (Fold Activation <250%))

## O=C(Nc1cccc(-c2nc3ccncc3s2)c1)c1ccccc1Oc1ccccc1 [Compound 245]
  pEC50: > 5.30
[2]
  FOLD ACT. MS: B (B (Fold Activation <250%))

## Cn1nc(C(C)(C)C)cc1C(=O)Nc1cccc(-c2nc3ccncc3s2)c1 [Compound 246]
  pEC50: > 5.30
[2]
  FOLD ACT. MS: B (B (Fold Activation <250%))

## O=C(Nc1cccc(-c2nc3ccncc3s2)c1)c1cc(C(F)(F)F)ccc1C(F)(F)F [Compound 248]
  pEC50: 4.30 to 5.30
[2]
  FOLD ACT. MS: B (B (Fold Activation <250%))

## COc1ccc(C(=O)Nc2ccccc2-c2cc3ccccc3[nH]2)cc1OC [Compound 254]
  pEC50: > 5.30
[2]
  FOLD ACT. MS: B (B (Fold Activation <250%))

## COc1cc(C(=O)Nc2ccccc2-c2cc3ccccc3[nH]2)cc(OC)c1OC [Compound 255]
  pEC50: > 5.30
[2]
  FOLD ACT. MS: B (B (Fold Activation <250%))

## COC(=O)c1ccc(-n2cncn2)c(NC(=O)c2ccc(OC)c(OC)c2)c1 [Compound 258]
  pEC50: 4.30 to 5.30
[2]
  FOLD ACT. MS: B (B (Fold Activation <250%))

## COc1cc(C(=O)Nc2cccc(-c3nc4ccccc4[nH]3)n2)cc(OC)c1OC [Compound 259]
  pEC50: > 5.30
[2]
  FOLD ACT. MS: A (A (Fold activation >250%))

## COc1ccc(C(=O)Nc2cccc(-c3nc4ccccc4[nH]3)n2)cc1OC [Compound 260]
  pEC50: > 5.30
[2]
  FOLD ACT. MS: A (A (Fold activation >250%))

## COc1ccc(C(=O)Nc2ccc(-c3nc4ccccc4[nH]3)cc2)c(OC)c1 [Compound 262]
  pEC50: > 5.30
[2]
  FOLD ACT. MS: B (B (Fold Activation <250%))

## COc1cc(C(=O)Nc2ccc(-c3nc4ccccc4[nH]3)cc2)cc(OC)c1OC [Compound 263]
  pEC50: 4.30 to 5.30
[2]
  FOLD ACT. MS: B (B (Fold Activation <250%))

## COc1ccc(C(=O)Nc2ccccc2-c2cn3ccccc3n2)c(OC)c1 [Compound 265]
  pEC50: 4.30 to 5.30
[2]
  FOLD ACT. MS: B (B (Fold Activation <250%))

## COc1ccc(C(=O)Nc2ccccc2-c2cn3ccccc3n2)cc1OC [Compound 266]
  pEC50: > 5.30
[2]
  FOLD ACT. MS: A (A (Fold activation >250%))

## COc1cc(C(=O)Nc2ccccc2-c2cn3ccccc3n2)cc(OC)c1OC [Compound 267]
  pEC50: > 5.30
[2]
  FOLD ACT. MS: B (B (Fold Activation <250%))

## CN(C)c1cccc(C(=O)Nc2ccccc2-c2cn3ccccc3n2)c1 [Compound 268]
  pEC50: > 5.30
[2]
  FOLD ACT. MS: B (B (Fold Activation <250%))

## COc1ccc(C(=O)Nc2ccccc2-c2cn3cc(CN4CCNCC4)sc3n2)cc1OC [Compound 270]
  pEC50: 4.30 to 5.30
[2]
  FOLD ACT. MS: A (A (Fold activation >250%))

## COc1cc(C(=O)Nc2ccccc2-c2cn3cc(CN4CCNCC4)sc3n2)cc(OC)c1OC [Compound 271]
  pEC50: > 5.30
[2]
  FOLD ACT. MS: A (A (Fold activation >250%))

## COc1ccc(C(=O)Nc2cccc(-c3nc4cnccc4s3)c2)c(OC)c1 [Compound 272]
  pEC50: > 5.30
[2]
  FOLD ACT. MS: B (B (Fold Activation <250%))

## COc1cc(C(=O)Nc2cccc(-c3nc4cnccc4s3)c2)cc(OC)c1OC [Compound 273]
  pEC50: 4.30 to 5.30
[2]
  FOLD ACT. MS: A (A (Fold activation >250%))

## COc1ccc(C(=O)Nc2ncccc2-c2nc3ccccc3[nH]2)cc1OC [Compound 276]
  pEC50: > 5.30
[2]
  FOLD ACT. MS: B (B (Fold Activation <250%))

## CC(=O)Nc1ccc(S(=O)(=O)Nc2cccc(-c3nc4ccncc4s3)c2)cc1 [Compound 288]
  pEC50: 4.30 to 5.30
[2]
  FOLD ACT. MS: B (B (Fold Activation <250%))

## COc1ccc(S(=O)(=O)Nc2cccc(-c3nc4ccncc4s3)c2)cc1OC [Compound 289]
  pEC50: 4.30 to 5.30
[2]
  FOLD ACT. MS: B (B (Fold Activation <250%))

## COc1cc(C(=O)N(C)c2ccccc2-c2nc3ncccc3o2)cc(OC)c1OC [Compound 292, 3,4,5-Trimethoxy-N-methyl-N-(2-oxazolo[4,5-b]pyridin-2-yl-phenyl)-benzamide]
  pEC50: < 3.82

## COc1cc(C(=O)Nc2ccccc2-c2nc3ccccc3[nH]2)cc(OC)c1OC [Compound 293]
  pEC50: > 5.30
[2]
  FOLD ACT. MS: A (A (Fold activation >250%))

## COc1ccc(C(=O)Nc2ccc(-c3nc4ccccc4[nH]3)cc2)cc1OC [Compound 294]
  pEC50: > 5.30
[2]
  FOLD ACT. MS: B (B (Fold Activation <250%))

## COc1ccc(C(=O)Nc2cccc(-c3nc4cnccc4o3)c2)c(OC)c1 [Compound 296]
  pEC50: 4.30 to 5.30
[2]
  FOLD ACT. MS: B (B (Fold Activation <250%))

## COc1cc(OC)cc(C(=O)Nc2cccc(-c3nc4cnccc4o3)c2)c1 [Compound 297]
  pEC50: 4.30 to 5.30
[2]
  FOLD ACT. MS: B (B (Fold Activation <250%))

## COc1cc(C(=O)Nc2cccc(-c3nc4cnccc4o3)c2)cc(OC)c1OC [Compound 298]
  pEC50: 4.30 to 5.30
[2]
  FOLD ACT. MS: B (B (Fold Activation <250%))

## CN(C)c1ccc(C(=O)Nc2cccc(-c3nc4cnccc4o3)c2)cc1 [Compound 299]
  pEC50: 4.30 to 5.30
[2]
  FOLD ACT. MS: B (B (Fold Activation <250%))

## Cc1cc(C(=O)Nc2cccc(-c3nc4ccncc4s3)c2)no1 [Compound 304]
  pEC50: > 5.30
[2]
  FOLD ACT. MS: B (B (Fold Activation <250%))

## O=C(Nc1cccc(-c2nc3ccncc3s2)c1)c1ccc(Oc2ccccc2)nc1 [Compound 306]
  pEC50: 4.30 to 5.30
[2]
  FOLD ACT. MS: B (B (Fold Activation <250%))
